{"source": "paper PMC12035797", "about": "“Peptidomimetics Activating the Proteasome: A New Perspective for Parkinson’s Treatment” (Journal of Medicinal Chemistry, 2025)", "key": {"[1]": {"test_system": "hippocampal neurons containing Lewy body-like pS129-αsyn aggregates", "experiment": "pS129-α-synuclein aggregates in PFF-treated hippocampal neurons", "assay_type": "cell-based, mouse", "conditions": "7 days after PFFs", "from_the_text": "Encouraged by the results received, we tested the ability of the modulator-CPP constructs to increase α-synuclein degradation in a cell model using primary mouse neuronal cells. The presence of Lewy-like neurites and Lewy-like bodies containing aggregated α-synuclein with phosphorylated serine 129 (pS129-αsyn) is a characteristic feature of the brains of people with Parkinson’s disease. To mimic these aggregations, we introduced a solution of preformed fibrils (PFFs) to the media of neuronal cells, which led to the induction of α-synuclein phosphorylation and its aggregation in neurons isolated from mouse embryos. PFFs are purified, prion-like fibrils of α-synuclein that are produced by expressing a recombinant monomeric protein in bacteria. Seven days after PFFs are introduced to the cells, large aggregates are visible in the cell soma, often next to the cell nucleus. We added the PFF solution to the hippocampal cells, and after an hour of incubation, we introduced solutions of the activator. After 7 days, we immunostained neuronal cells using a monoclonal antibody against the NeuN protein, which is commonly used in neuronal differentiation studies to assess their functional status. Additionally, we stained the nuclei of all incubated cells with DAPI. […] It is noteworthy that the number of cells in samples with activators was slightly higher (Figure 5), which may indicate neuroprotective properties. […] The main tool for monitoring this process was an antibody against pS129-αsyn. […] The fluorescent microscopy images (Figure 5) show the difference between the amounts of aggregated protein in the control sample and in the samples containing activators at different concentrations.\nCells were isolated from pregnant mouse embryos at E16.0 and plated on precoated with poly-L-lysine wells of 96-well plates (PerkinElmer/Revvity Inc., Waltham, MA, USA) at 25,000 cells/well. The final medium volume was 150 μL/well. Cells were incubated at 37 °C, 5% CO2. […]"}, "[2]": {"test_system": "human 20S proteasome (α-synuclein substrate)", "experiment": "α-Synuclein degradation by h20S (SDS-PAGE)", "assay_type": "biochemical", "conditions": "10 μM modulator, 37 °C, 1.5 h; h20S alone = 100%", "experimental": "The effectiveness of the compounds has also been examined by using proteins as substrates. By means of SDS-PAGE electrophoresis, we checked the extent to which model proteins were digested by the 20S proteasome alone and after its stimulation by 10 μM modulators. […] After incubation with the enzyme in the presence of each modulator, less than 40% of synuclein remained. […] The experiment was performed as it was described.[36] Briefly, α-synuclein (rPeptide, […], USA) and Tau-441 (Novus Biologicals, Centennial, CO, USA) were dissolved in 20 mM HEPES buffer (pH 7.4) and mixed with a human 20S proteasome. Samples were incubated at 37 °C for 1.5 h, after which the reaction was terminated by adding 4× Laemmli buffer. The levels of undigested proteins were evaluated by SDS-PAGE. The band intensities of proteins incubated with […] in the presence of a modulator were compared to those of proteins incubated with the enzyme alone, which were set as 100%. Three independent experiments were performed for each protein. The results are presented as the means ± SD. One-way ANOVA with Tukey's post-hoc test was used to determine statistical significance."}}}
{"compound": "C[C@@H](O)[C@H](NC(=O)[C@H](Cc1ccccc1)NC(=O)[C@H](Cc1ccc(O)cc1)NC(=O)CN(CCCCN)C(=O)[C@H](CCCNC(=N)N)NC(=O)[C@H](CCCNC(=N)N)NC(=O)[C@H](CCCNC(=N)N)NC(=O)[C@H](CCC(N)=O)NC(=O)[C@H](CCCNC(=N)N)NC(=O)[C@H](CCCNC(=N)N)NC(=O)[C@H](CCCCN)NC(=O)[C@H](CCCCN)NC(=O)[C@@H](N)CCCNC(=N)N)C(=O)NCC(=O)N[C@@H](CO)C(=O)N[C@@H](CCCCN)C(=O)N[C@@H](CC(=O)O)C(=O)N[C@@H](Cc1c[nH]c2ccccc12)C(=O)N[C@@H](CCCNC(=N)N)C(=O)N[C@@H](CO)C(=O)N[C@@H](Cc1ccc(O)cc1)C(=O)N[C@@H](Cc1ccc(O)cc1)C(=O)N[C@@H](CO)C(=O)O", "note": "[1f]", "values": [{"measurement": "effect on hippocampal cells containing α-synuclein aggregates", "setting": "[1]; 0.5 and 2.5 μM", "result": "effectively reduced the number of hippocampal cells containing α-synuclein"}, {"measurement": "reduction of the number of aggregates formed", "setting": "[1]; very low concentration", "result": 50, "unit": "%"}, {"measurement": "α-synuclein remaining after incubation with h20S", "setting": "[2]", "result": "less than 40%"}]}
